Where “and” joins values, the source holds several entries; their conditions need not be identical. Equal entries are not always repeated. Where two headings read alike, the source gives them in different places.
Tests used:
Assay type in all cases: in vivo, human
patients with NT1 [1] = test: PVT, multiple dose (Cohorts B1, B2); settings: 9 hours postdose
patients with NT1 [2] = test: KSS, multiple dose (Cohorts B1, B2); settings: 9 hours postdose
Description: (§1) The purpose of the study was to evaluate the safety, tolerability, pharmacokinetics and pharmacodynamics of Compound A after multiple IV administration in patients with NT1. NT1 patients were evaluated in Cohort B1 and B2 (Table 19). Compound A or placebo were administered via IV infusion over 9 hours once daily for 7 days. A total of 13 patients with NT1 were treated with Compound A or placebo (4, 4, and 5 subjects in the placebo, Compound A 11 mg, and Compound A 44 mg groups, respectively). In this part, potential efficacy of Compound A was evaluated with MWT, ESS, KSS, night-time PSG (NPSG), cataplexy frequency assessment, and PGI-C as an exploratory PD assessment.

[3] = Multiple-dose PK of intravenous Compound A in patients with NT1 (Cohorts B1, B2), plasma; settings: for clearance: read-out: CL, Mean (converted)
Description: as §1
Blood samples used for PK analysis of Compound A was collected according to Table 20. See also FIG. 12 for whole schedules of study procedures.

patients with NT1 [4] = test: Safety and tolerability of multiple IV administration in patients with NT1
Description: as §1

[5] = tested on: patients with narcolepsy type 1 (NT1); test: Safety/tolerability of a single dose given as 9 hour continuous IV infusion in NT1 patients
Description: This study investigates (i) the safety and tolerability of Compound A (methyl (2R,3S)-3-((methylsulfonyl)amino)-2-(((cis-4-phenylcyclohexyl)oxy)methyl)piperidine-1-carboxylate) when a single dose given as a 9 hour continuous IV infusion is administered to healthy adults, healthy elderly subjects and patients with narcolepsy type 1 (NT1); (ii) the pharmacokinetics of Compound A when a single dose given as a 9 hour continuous IV infusion is administered to healthy adults, healthy elderly subjects and patients with narcolepsy type 1; and (iii) the pharmacodynamics (PD) effects of Compound A, primarily by evaluation of the sleep latency on MWT when a single dose given as a 9 hour continuous IV infusion is administered to patients with narcolepsy type 1.
Safety and tolerability: adverse events, vital signs, 12-lead ECG and clinical laboratory tests (hematological tests, blood biochemical tests and urinalysis)
To investigate the safety of Compound A, the treatment-emergent adverse events (TEAEs) for healthy subjects and subjects with narcolepsy type 1 (NT1 patients) treated with Compound A were evaluated. A summary of the TEAEs for healthy subjects from cohorts 1 and 2 is shown in FIG. 3, for healthy subjects from cohorts S1, S2, 3, and 4 is shown in FIG. 4, and for NT1 patients is shown in FIG. 5.

patients with NT1 [6] = test: Epworth Sleepiness Scale (ESS), multiple dose (Cohorts B1, B2); settings: for ESS Change from Baseline, Median / ESS Observed Value, Median: Day 7; for ESS Observed Value, Mean: Day 7 (placebo 16.3); for ESS Change from Baseline, Mean: Day 7 (placebo −0.3)
Description: as §1

[7] = tested on: patients with narcolepsy type 1 (NT1); test: Sleep latency in Maintenance of Wakefulness Test (MWT), single dose (Cohorts 5, 6, 7); settings: for average sleep latency in MWT, mean (SD): NT1 (placebo 2.88); for Average Sleep Latency in MWT: Cohort 5, 6, 7
Description: In Part 2, NT1 patients received a single dose of Compound A or placebo administered as a continuous IV infusion over a 9-hour period during the day. A 40-minute Maintenance of Wakefulness Test (MWT) was conducted 4 times during the continuous IV infusion to assess effects on wakefulness in soporific conditions at 2, 4, 6 and 8 hours from start of infusion. Three cohorts of patients were enrolled (n=14 total).
The average sleep latency in the Maintenance Wakefulness Test (MWT)
Sleep related parameters in the MWT (sleep latency (SL) in each session).
The pharmacodynamics (PD) for sleepiness is shown in FIG. 8, which depicts the average post-dose MWT sleep latency for NT1 patients overall all dose time points. Due to the crossover design, some subjects in the placebo group were the same as some subjects in 5 mg-44.8 mg group.

[8] = human, plasma, intravenous, 11 mg, Day 7

## COC(=O)N1CCC[C@H](NS(C)(=O)=O)[C@@H]1CO[C@H]1CC[C@@H](c2ccccc2)CC1 [Compound A, methyl (2R,3S)-3-((methylsulfonyl)amino)-2-(((cis-4-phenylcyclohexyl)oxy)methyl)piperidine-1-carboxylate]
Patients with NT1 [1]; 11 mg, Day 1 (placebo 10.5)
  PVT, mean change from baseline in the number of lapses: −9.3
Patients with NT1 [1]; 11 mg, Day 1 (placebo −0.49)
  PVT, mean change from baseline in mean duration of the reciprocal 10% slowest reaction time (1/RT): 0.88
Patients with NT1 [1]; 11 mg, Day 7 (placebo 11.8)
  PVT, mean change from baseline in the number of lapses: −14.8
Patients with NT1 [1]; 11 mg, Day 7 (placebo −0.73)
  PVT, mean change from baseline in mean duration of the reciprocal 10% slowest reaction time (1/RT): 1.27
Patients with NT1 [1]; 44 mg, Day 1 (placebo 10.5)
  PVT, mean change from baseline in the number of lapses: −12.8
Patients with NT1 [1]; 44 mg, Day 1 (placebo −0.49)
  PVT, mean change from baseline in mean duration of the reciprocal 10% slowest reaction time (1/RT): 0.51
Patients with NT1 [1]; 44 mg, Day 7 (placebo 11.8)
  PVT, mean change from baseline in the number of lapses: −12.8
Patients with NT1 [1]; 44 mg, Day 7 (placebo −0.73)
  PVT, mean change from baseline in mean duration of the reciprocal 10% slowest reaction time (1/RT): −0.70
Patients with NT1 [2]; 11 mg, Day 1 (placebo 0.0)
  mean change from baseline in KSS: −3.0
Patients with NT1 [2]; 11 mg, Day 7 (placebo −0.3)
  mean change from baseline in KSS: −2.0
Patients with NT1 [2]; 44 mg, Day 1 (placebo 0.0)
  mean change from baseline in KSS: −4.4
Patients with NT1 [2]; 44 mg, Day 7 (placebo −0.3)
  mean change from baseline in KSS: −4.6
[3]; 11 mg, Day 1
  AUCtau D, Mean: 15.00 ng·h/mL/mg
  Cmax D Mean: 1.660 ng/mL/mg
  Vax, Mean: 129.6 L
[3]; 11 mg, Day 7
  AUCtau D, Mean: 16.70 ng·h/mL/mg
  Cmax D Mean: 1.868 ng/mL/mg
  Cmin, Mean: 0.3258 ng/mL
  PTR, Mean: 57.07
  Vx, Mean: 313.0 L
  t½z Mean: 3.595 h
[3]; 11 mg, Day 7 (N of Geo Mean 3)
  Cmin, Geo Mean: 0.4061 ng/mL
[3]; 44 mg, Day 1
  AUCtau D, Mean: 15.70 ng·h/mL/mg
  Vax, Mean: 135.0 L
  Vz, Mean: 316.2 L
[3]; 44 mg, Day 7
  AUCtau D, Mean: 16.56 ng·h/mL/mg
  Cmax D Mean: 1.858 ng/mL/mg
  Cmin, Mean: 1.327 ng/mL
  PTR, Mean: 70.28
  Vx, Mean: 375.2 L
  t½z Mean: 4.222 h
[3]; QD dosing, 9-hour IV infusion daily for 7 days
  drug accumulation: no drug accumulation was observed
[3]; daily 9-hour IV infusions, 11 and 44 mg
  dose proportionality of mean plasma systemic exposures: generally increased in a dose proportional manner
[3]; human, plasma, intravenous, 11 mg, Day 1, read-out: AUCinf, Geo Mean
  AUC(0-inf): 166 ng·h/mL
[3]; human, plasma, intravenous, 11 mg, Day 1, read-out: AUCinf, Mean
  AUC(0-inf): 167 ng·h/mL
[3]; human, plasma, intravenous, 11 mg, Day 1, read-out: AUClast, Geo Mean
  AUC(0-t): 164 ng·h/mL
[3]; human, plasma, intravenous, 11 mg, Day 1, read-out: AUCtau, Geo Mean
  AUC: 164 ng·h/mL
[3]; human, plasma, intravenous, 11 mg, Day 1, read-out: AUCtau, Mean
  AUC: 165 ng·h/mL
[3]; human, plasma, intravenous, 11 mg, Day 1, read-out: Cmax, Geo Mean
  Cmax: 18.2 ng/mL
[3]; human, plasma, intravenous, 11 mg, Day 1, read-out: Cmax, Mean
  Cmax: 18.3 ng/mL
[3]; human, plasma, intravenous, 11 mg, Day 7, read-out: AUClast, Geo Mean
  AUC(0-t): 182 ng·h/mL
[3]; human, plasma, intravenous, 11 mg, Day 7, read-out: AUCtau, Geo Mean
  AUC: 183 ng·h/mL
[3]; human, plasma, intravenous, 11 mg, Day 7, read-out: AUCtau, Mean
  AUC: 184 ng·h/mL
[3]; human, plasma, intravenous, 11 mg, Day 7, read-out: Cmax, Geo Mean
  Cmax at 7 days: 20.5 ng/mL
[3]; human, plasma, intravenous, 44 mg, Day 1, read-out: AUCinf, Mean
  AUC(0-inf): 697 ng·h/mL
[3]; human, plasma, intravenous, 44 mg, Day 1, read-out: AUClast, Geo Mean
  AUC(0-t): 682 ng·h/mL
[3]; human, plasma, intravenous, 44 mg, Day 7, read-out: AUCtau, Geo Mean
  AUC: 723 ng·h/mL
[3]; human, plasma, intravenous, 44 mg, Day 7, read-out: AUCtau, Mean
  AUC: 729 ng·h/mL
[3]; human, plasma, intravenous, 44 mg, Day 7, read-out: Cmax, Geo Mean
  Cmax at 7 days: 81.2 ng/mL
[3]; human, plasma, intravenous, 11 mg, Day 1, read-out: Vz, Mean
  Vd: 310 L
[3]; [8]
  Tmax at 7 days: 5.17 h
  clearance: 1010 mL/min
[3]; human, plasma, intravenous, 44 mg, Day 1
  clearance: 1080 mL/min
[3]; human, plasma, intravenous, 44 mg, Day 7
  Tmax: 4.93 h
[3]; human, plasma, iv, 11 mg, Day 1, 9 h IV infusion QD, NT1, read-out: AUClast, Mean
  AUC(0-t): 164 ng·h/mL
Patients with NT1 [4]; NT1 patient populations
  BP and PR increases vs plasma exposure: A trend for the observed BP and PR increases with increasing Compound A plasma exposure was observed
Patients with NT1 [4]; multiple IV administrations of up to 44 mg, 9 h infusion once daily for 7 days, NT1
  safety and tolerability: safe and well tolerated
Patients with NT1 [4]; multiple IV administrations of up to 44 mg, NT1
  SAE and TEAE leading to study drug discontinuation: There was no SAE, and no TEAE leading to study drug discontinuation
[5]; 44.8 mg
  AEs observed in NT1 at the highest dose: Blood pressure increase, heart rate increase, central nervous system (CNS) related symptoms (euphoric mood, hypnagogic hallucination and logorrhea) and salivary hypersecretion were observed
[5]; NT1 subjects, doses up to 44.8 mg
  dose dependent effect on BP and heart rate increase: not notable
[5]; single dose, slow infusion over 9 hours, up to 44.8 mg, narcolepsy type 1 patients
  tolerability: well-tolerated with no major safety concerns
Patients with NT1 [6]; 11 mg
  ESS Change from Baseline, Median: −9.5
  ESS Observed Value, Median: 8.5
  ESS Observed Value, Mean: 9.8
  ESS Change from Baseline, Mean: −8.3
Patients with NT1 [6]; 44 mg
  ESS Change from Baseline, Median: −18.0
  ESS Observed Value, Median: 0.0
  ESS Observed Value, Mean: 0.0
  ESS Change from Baseline, Mean: −18.6
[7]; 5 mg
  average sleep latency in MWT, LS mean difference (95% CI) minus placebo: 18.792 (11.987, 25.596) min
[7]; 5 mg single 9 h IV infusion
  average sleep latency in MWT, mean (SD): 22.38 (10.125) min and 22.4 min and 22.38 min
[7]; 5 mg, 10:00 (infusion start 7:45)
  Sleep latency in MWT by visit, Mean: 25.25 min
[7]; 5 mg, 12:00
  Sleep latency in MWT by visit, Mean: 29.75 min
[7]; 5 mg, 14:00
  Sleep latency in MWT by visit, Mean: 8.92 min
[7]; 5 mg, 16:00
  Sleep latency in MWT by visit, Mean: 25.58 min
[7]; 11.2 mg
  average sleep latency in MWT, LS mean difference (95% CI) minus placebo: 36.063 (27.729, 44.396) min
  subjects achieving the maximum sleep latency (40 min) in MWT: 3 out of 4
[7]; 11.2 mg single 9 h IV infusion
  average sleep latency in MWT, mean (SD): 37.59 (4.813) min and 37.6 min and 37.59 min
[7]; 11.2 mg, 10:00
  Sleep latency in MWT by visit, Mean: 37.38 min
[7]; 11.2 mg, 14:00
  Sleep latency in MWT by visit, Mean: 33.00 min
[7]; 11.2 mg, 16:00
  Sleep latency in MWT by visit, Mean: 40.00 min
[7]; 44.8 mg
  average sleep latency in MWT, LS mean difference (95% CI) minus placebo: 36.662 (27.344, 45.979) min
[7]; 44.8 mg single 9 h IV infusion
  average sleep latency in MWT, mean (SD): 40.00 (0.000) min and 40 min
[7]; 44.8 mg, all four 40-min trials
  subjects achieving the maximum sleep latency (40 min) in MWT: 4 out of 4
[7]; 44.8 mg, 10:00
  Sleep latency in MWT by visit, Mean: 40.00 min
[7]; 44.8 mg, 12:00
  Sleep latency in MWT by visit, Mean: 40.00 min
[7]; 44.8 mg, 14:00
  Sleep latency in MWT by visit, Mean: 40.00 min
[7]; 44.8 mg, 16:00
  Sleep latency in MWT by visit, Mean: 40.00 min
[7]; 5, 11.2, 44.8 mg, NT1 patients
  effect on wakefulness as measured by time to sleep onset on the MWT: clear dose dependent effect
[7]; Cmpd A 5 mg, Mean
  Average Sleep Latency in MWT: 22.38 min
[7]; Cmpd A 5 mg, Median
  Average Sleep Latency in MWT: 21.69 min
[7]; Cmpd A 11.2 mg, Mean
  Average Sleep Latency in MWT: 37.59 min
[7]; Cmpd A 11.2 mg, Median
  Average Sleep Latency in MWT: 40.00 min
[7]; Cmpd A 44.8 mg, Mean
  Average Sleep Latency in MWT: 40.00 min
[7]; Cmpd A 44.8 mg, Median
  Average Sleep Latency in MWT: 40.00 min
[7]; higher dose groups of Compound A
  mean sleep latency in the lunch session (14:00): over 30 min
